Experimental data from patent publication US8202731B2, “HPTS-mono and bis Cys-MA polymerizable fluorescent dyes for use in analyte sensors” (Glumetrics, Inc., priority 2007, dated 2012).

Experiments:
Type in all cases: physicochemical
[1] = Fluorescence of the dye in pH 7.4 PBS measured on the fluorimeter; details: pH 7.4 PBS (FIG. 9)
Experimental: Bis-MA was dissolved in pH 7.4 PBS and its fluorescence was measured on the fluorimeter. FIG. 9 compares Bis-MA with the Mono- and Tri-substituted HPTS derivatives.

[2] = Comparison of dyes: emission/absorbance ratio (apparent quantum yield) in pH 7.4 PBS; details: 1 × 10^−5 M in pH 7.4 PBS
[3] = Determination of dye pKa via pH study, dye immobilized in 40% DMAA hydrogel
Experimental: A hydrogel was prepared containing mono-CysMA, as described previously in U.S. patent application Ser. No. 11/671,880, to evaluate the fluorescence properties (excitation (ex), emission (em) and pKa) of mono-CysMA.
A pH study was carried out with the gel.
The three polymerizable dyes were immobilized using 40% DMAA and their pKa determined via a pH study.

Structure (SMILES) | Shift of fluorescence spectrum relative to mono- and tri-substituted HPTS derivatives [1] | Absorbance [2] | Intensity at max ([2]; emission) | Ratio (“Quantum Yield”) ([2]; Em/Abs ratio, apparent quantum yield, arbitrary numbers) | pKa ([3]; dye immobilized in 40% DMAA hydrogel, polymerizable dyes immobilized using 40% DMAA, pH study) | pKa ([3]; pH study with hydrogel containing mono-CysMA (FIG. 2), HPTS given for comparison)
C=C(C)C(=O)NCCCNS(=O)(=O)c1cc(S(=O)(=O)NCCCNC(=O)C(=C)C)c2ccc3c(S(=O)(=O)[O-])cc(O)c4ccc1c2c43.[Na+] [Bis-MA] | red-shifted relative to the Mono product but blue-shifted relative to the Tri product |  |  |  |  | 
O=S(=O)(O)c1cc(O)c2ccc3c(S(=O)(=O)O)cc(S(=O)(=O)O)c4ccc1c2c34 [HPTS, 8-hydroxypyrene-1,3,6-trisulfonic acid] |  | 0.1565 | 553 | 3533 | 7.3 | 7.3
